Laboratory results as given in the OligoGym collection.
Oligonucleotides are given in HELM: sugar(base)linkage, 5' to 3'; d 2'-deoxyribose, r ribose, m 2'-O-methylribose, p phosphate. ss, as = sense and antisense strand
Also: test concentration or dose not given here.

The substances below were run against Mmp7 (rat) (assay: reporter assay of Huesken 2005). Details: siRNA.
For “RNA1{r(G)p.r(G)p.r(C)p.r(C)p.r(A)p.r(C)p.r(U)p.r(C)p.r(U)p.r(C)p.r(U)p.r(G)p.r(G)p.r(G)p.r(U)p.r(C)p.r(U)p.r(G)p.r(G)p.d(T)p.d(T)}|RNA2{r(C)p.r(C)p.r(A)p.r(G)p.r(A)p.r(C)p.r(C)p.r(C)p.r(A)p.r(G)p.r(A)p.r(G)p.r(A)p.r(G)p.r(U)p.r(G)p.r(G)p.r(C)p.r(C)p.d(A)p.d(A)}$$$RNA1{StrandType:ss}|RNA2{StrandType:as}$”, the normalised inhibition (eCFP-eYFP dual reporter) was 41.4%.
“RNA1{r(G)p.r(G)p.r(C)p.r(C)p.r(A)p.r(G)p.r(G)p.r(A)p.r(A)p.r(A)p.r(C)p.r(A)p.r(C)p.r(U)p.r(C)p.r(U)p.r(A)p.r(G)p.r(G)p.d(T)p.d(T)}|RNA2{r(C)p.r(C)p.r(U)p.r(A)p.r(G)p.r(A)p.r(G)p.r(U)p.r(G)p.r(U)p.r(U)p.r(U)p.r(C)p.r(C)p.r(U)p.r(G)p.r(G)p.r(C)p.r(C)p.d(C)p.d(A)}$$$RNA1{StrandType:ss}|RNA2{StrandType:as}$” was tested, and the normalised inhibition (eCFP-eYFP dual reporter) was 54.5%.
“RNA1{r(G)p.r(G)p.r(C)p.r(G)p.r(C)p.r(A)p.r(G)p.r(A)p.r(A)p.r(U)p.r(U)p.r(A)p.r(U)p.r(C)p.r(U)p.r(U)p.r(A)p.r(G)p.r(G)p.d(T)p.d(T)}|RNA2{r(C)p.r(C)p.r(U)p.r(A)p.r(A)p.r(G)p.r(A)p.r(U)p.r(A)p.r(A)p.r(U)p.r(U)p.r(C)p.r(U)p.r(G)p.r(C)p.r(G)p.r(C)p.r(C)p.d(T)p.d(G)}$$$RNA1{StrandType:ss}|RNA2{StrandType:as}$” gave a normalised inhibition (eCFP-eYFP dual reporter) of 134%.
“RNA1{r(G)p.r(G)p.r(G)p.r(A)p.r(A)p.r(C)p.r(A)p.r(G)p.r(G)p.r(C)p.r(G)p.r(C)p.r(A)p.r(G)p.r(A)p.r(A)p.r(U)p.r(U)p.r(A)p.d(T)p.d(T)}|RNA2{r(U)p.r(A)p.r(A)p.r(U)p.r(U)p.r(C)p.r(U)p.r(G)p.r(C)p.r(G)p.r(C)p.r(C)p.r(U)p.r(G)p.r(U)p.r(U)p.r(C)p.r(C)p.r(C)p.d(A)p.d(C)}$$$RNA1{StrandType:ss}|RNA2{StrandType:as}$” was tested, and the normalised inhibition (eCFP-eYFP dual reporter) was 93.6%.
In the case of “RNA1{r(G)p.r(G)p.r(G)p.r(A)p.r(G)p.r(A)p.r(U)p.r(C)p.r(A)p.r(C)p.r(G)p.r(G)p.r(A)p.r(G)p.r(A)p.r(C)p.r(A)p.r(A)p.r(C)p.d(T)p.d(T)}|RNA2{r(G)p.r(U)p.r(U)p.r(G)p.r(U)p.r(C)p.r(U)p.r(C)p.r(C)p.r(G)p.r(U)p.r(G)p.r(A)p.r(U)p.r(C)p.r(U)p.r(C)p.r(C)p.r(C)p.d(C)p.d(T)}$$$RNA1{StrandType:ss}|RNA2{StrandType:as}$”, the normalised inhibition (eCFP-eYFP dual reporter) is reported as 94.2%.
“RNA1{r(G)p.r(G)p.r(G)p.r(C)p.r(C)p.r(A)p.r(G)p.r(G)p.r(A)p.r(A)p.r(A)p.r(C)p.r(A)p.r(C)p.r(U)p.r(C)p.r(U)p.r(A)p.r(G)p.d(T)p.d(T)}|RNA2{r(C)p.r(U)p.r(A)p.r(G)p.r(A)p.r(G)p.r(U)p.r(G)p.r(U)p.r(U)p.r(U)p.r(C)p.r(C)p.r(U)p.r(G)p.r(G)p.r(C)p.r(C)p.r(C)p.d(A)p.d(T)}$$$RNA1{StrandType:ss}|RNA2{StrandType:as}$” showed a normalised inhibition (eCFP-eYFP dual reporter) of 83.5%.
“RNA1{r(G)p.r(G)p.r(G)p.r(G)p.r(C)p.r(C)p.r(A)p.r(G)p.r(G)p.r(C)p.r(C)p.r(U)p.r(C)p.r(G)p.r(G)p.r(C)p.r(G)p.r(G)p.r(A)p.d(T)p.d(T)}|RNA2{r(U)p.r(C)p.r(C)p.r(G)p.r(C)p.r(C)p.r(G)p.r(A)p.r(G)p.r(G)p.r(C)p.r(C)p.r(U)p.r(G)p.r(G)p.r(C)p.r(C)p.r(C)p.r(C)p.d(G)p.d(G)}$$$RNA1{StrandType:ss}|RNA2{StrandType:as}$” was tested, and the normalised inhibition (eCFP-eYFP dual reporter) was 50.8%.
“RNA1{r(G)p.r(G)p.r(U)p.r(C)p.r(U)p.r(G)p.r(G)p.r(G)p.r(U)p.r(C)p.r(A)p.r(C)p.r(U)p.r(C)p.r(U)p.r(U)p.r(C)p.r(U)p.r(G)p.d(T)p.d(T)}|RNA2{r(C)p.r(A)p.r(G)p.r(A)p.r(A)p.r(G)p.r(A)p.r(G)p.r(U)p.r(G)p.r(A)p.r(C)p.r(C)p.r(C)p.r(A)p.r(G)p.r(A)p.r(C)p.r(C)p.d(C)p.d(A)}$$$RNA1{StrandType:ss}|RNA2{StrandType:as}$” gave a normalised inhibition (eCFP-eYFP dual reporter) of 73.8%.
“RNA1{r(G)p.r(G)p.r(U)p.r(G)p.r(A)p.r(G)p.r(G)p.r(A)p.r(C)p.r(U)p.r(C)p.r(A)p.r(G)p.r(G)p.r(C)p.r(G)p.r(U)p.r(G)p.r(A)p.d(T)p.d(T)}|RNA2{r(U)p.r(C)p.r(A)p.r(C)p.r(G)p.r(C)p.r(C)p.r(U)p.r(G)p.r(A)p.r(G)p.r(U)p.r(C)p.r(C)p.r(U)p.r(C)p.r(A)p.r(C)p.r(C)p.d(A)p.d(T)}$$$RNA1{StrandType:ss}|RNA2{StrandType:as}$” showed a normalised inhibition (eCFP-eYFP dual reporter) of 94.6%.
In the case of “RNA1{r(G)p.r(G)p.r(U)p.r(U)p.r(U)p.r(G)p.r(C)p.r(C)p.r(G)p.r(G)p.r(A)p.r(G)p.r(A)p.r(C)p.r(U)p.r(G)p.r(G)p.r(A)p.r(A)p.d(T)p.d(T)}|RNA2{r(U)p.r(U)p.r(C)p.r(C)p.r(A)p.r(G)p.r(U)p.r(C)p.r(U)p.r(C)p.r(C)p.r(G)p.r(G)p.r(C)p.r(A)p.r(A)p.r(A)p.r(C)p.r(C)p.d(G)p.d(A)}$$$RNA1{StrandType:ss}|RNA2{StrandType:as}$”, the normalised inhibition (eCFP-eYFP dual reporter) is reported as 103%.
Work on “RNA1{r(G)p.r(U)p.r(C)p.r(A)p.r(U)p.r(G)p.r(G)p.r(A)p.r(G)p.r(A)p.r(U)p.r(A)p.r(A)p.r(U)p.r(G)p.r(C)p.r(A)p.r(G)p.r(A)p.d(T)p.d(T)}|RNA2{r(U)p.r(C)p.r(U)p.r(G)p.r(C)p.r(A)p.r(U)p.r(U)p.r(A)p.r(U)p.r(C)p.r(U)p.r(C)p.r(C)p.r(A)p.r(U)p.r(G)p.r(A)p.r(C)p.d(A)p.d(C)}$$$RNA1{StrandType:ss}|RNA2{StrandType:as}$” yielded a normalised inhibition (eCFP-eYFP dual reporter) of 115%.
“RNA1{r(G)p.r(U)p.r(C)p.r(C)p.r(U)p.r(A)p.r(A)p.r(G)p.r(U)p.r(G)p.r(G)p.r(C)p.r(A)p.r(U)p.r(U)p.r(C)p.r(C)p.r(A)p.r(G)p.d(T)p.d(T)}|RNA2{r(C)p.r(U)p.r(G)p.r(G)p.r(A)p.r(A)p.r(U)p.r(G)p.r(C)p.r(C)p.r(A)p.r(C)p.r(U)p.r(U)p.r(A)p.r(G)p.r(G)p.r(A)p.r(C)p.d(T)p.d(G)}$$$RNA1{StrandType:ss}|RNA2{StrandType:as}$” showed a normalised inhibition (eCFP-eYFP dual reporter) of 110%.
With “RNA1{r(G)p.r(U)p.r(G)p.r(A)p.r(G)p.r(G)p.r(A)p.r(C)p.r(U)p.r(C)p.r(A)p.r(G)p.r(G)p.r(C)p.r(G)p.r(U)p.r(G)p.r(A)p.r(A)p.d(T)p.d(T)}|RNA2{r(U)p.r(U)p.r(C)p.r(A)p.r(C)p.r(G)p.r(C)p.r(C)p.r(U)p.r(G)p.r(A)p.r(G)p.r(U)p.r(C)p.r(C)p.r(U)p.r(C)p.r(A)p.r(C)p.d(C)p.d(A)}$$$RNA1{StrandType:ss}|RNA2{StrandType:as}$” the normalised inhibition (eCFP-eYFP dual reporter) was 89.4%.
“RNA1{r(G)p.r(U)p.r(G)p.r(U)p.r(C)p.r(A)p.r(U)p.r(G)p.r(G)p.r(A)p.r(G)p.r(A)p.r(U)p.r(A)p.r(A)p.r(U)p.r(G)p.r(C)p.r(A)p.d(T)p.d(T)}|RNA2{r(U)p.r(G)p.r(C)p.r(A)p.r(U)p.r(U)p.r(A)p.r(U)p.r(C)p.r(U)p.r(C)p.r(C)p.r(A)p.r(U)p.r(G)p.r(A)p.r(C)p.r(A)p.r(C)p.d(G)p.d(G)}$$$RNA1{StrandType:ss}|RNA2{StrandType:as}$” showed a normalised inhibition (eCFP-eYFP dual reporter) of 112%.
In the case of “RNA1{r(G)p.r(U)p.r(G)p.r(U)p.r(G)p.r(G)p.r(A)p.r(G)p.r(U)p.r(G)p.r(C)p.r(C)p.r(A)p.r(G)p.r(A)p.r(U)p.r(G)p.r(U)p.r(U)p.d(T)p.d(T)}|RNA2{r(A)p.r(A)p.r(C)p.r(A)p.r(U)p.r(C)p.r(U)p.r(G)p.r(G)p.r(C)p.r(A)p.r(C)p.r(U)p.r(C)p.r(C)p.r(A)p.r(C)p.r(A)p.r(C)p.d(C)p.d(T)}$$$RNA1{StrandType:ss}|RNA2{StrandType:as}$”, the normalised inhibition (eCFP-eYFP dual reporter) is reported as 93.9%.
In the case of “RNA1{r(G)p.r(U)p.r(U)p.r(C)p.r(U)p.r(G)p.r(U)p.r(G)p.r(A)p.r(U)p.r(G)p.r(U)p.r(A)p.r(C)p.r(C)p.r(C)p.r(U)p.r(A)p.r(C)p.d(T)p.d(T)}|RNA2{r(G)p.r(U)p.r(A)p.r(G)p.r(G)p.r(G)p.r(U)p.r(A)p.r(C)p.r(A)p.r(U)p.r(C)p.r(A)p.r(C)p.r(A)p.r(G)p.r(A)p.r(A)p.r(C)p.d(T)p.d(G)}$$$RNA1{StrandType:ss}|RNA2{StrandType:as}$”, the normalised inhibition (eCFP-eYFP dual reporter) is reported as 105%.
“RNA1{r(G)p.r(U)p.r(U)p.r(G)p.r(C)p.r(A)p.r(G)p.r(A)p.r(A)p.r(U)p.r(U)p.r(C)p.r(U)p.r(C)p.r(A)p.r(C)p.r(U)p.r(A)p.r(A)p.d(T)p.d(T)}|RNA2{r(U)p.r(U)p.r(A)p.r(G)p.r(U)p.r(G)p.r(A)p.r(G)p.r(A)p.r(A)p.r(U)p.r(U)p.r(C)p.r(U)p.r(G)p.r(C)p.r(A)p.r(A)p.r(C)p.d(A)p.d(T)}$$$RNA1{StrandType:ss}|RNA2{StrandType:as}$” gave a normalised inhibition (eCFP-eYFP dual reporter) of 122%.
Substance “RNA1{r(U)p.r(A)p.r(A)p.r(U)p.r(G)p.r(C)p.r(C)p.r(A)p.r(A)p.r(A)p.r(C)p.r(A)p.r(G)p.r(U)p.r(C)p.r(C)p.r(U)p.r(A)p.r(A)p.d(T)p.d(T)}|RNA2{r(U)p.r(U)p.r(A)p.r(G)p.r(G)p.r(A)p.r(C)p.r(U)p.r(G)p.r(U)p.r(U)p.r(U)p.r(G)p.r(G)p.r(C)p.r(A)p.r(U)p.r(U)p.r(A)p.d(G)p.d(T)}$$$RNA1{StrandType:ss}|RNA2{StrandType:as}$” has a normalised inhibition (eCFP-eYFP dual reporter) of 105%.
Work on “RNA1{r(U)p.r(A)p.r(C)p.r(C)p.r(U)p.r(U)p.r(C)p.r(A)p.r(C)p.r(G)p.r(A)p.r(C)p.r(U)p.r(C)p.r(U)p.r(A)p.r(A)p.r(A)p.r(A)p.d(T)p.d(T)}|RNA2{r(U)p.r(U)p.r(U)p.r(U)p.r(A)p.r(G)p.r(A)p.r(G)p.r(U)p.r(C)p.r(G)p.r(U)p.r(G)p.r(A)p.r(A)p.r(G)p.r(G)p.r(U)p.r(A)p.d(A)p.d(A)}$$$RNA1{StrandType:ss}|RNA2{StrandType:as}$” yielded a normalised inhibition (eCFP-eYFP dual reporter) of 110%.
“RNA1{r(U)p.r(A)p.r(C)p.r(U)p.r(G)p.r(G)p.r(A)p.r(C)p.r(G)p.r(G)p.r(A)p.r(U)p.r(G)p.r(G)p.r(U)p.r(G)p.r(A)p.r(G)p.r(G)p.d(T)p.d(T)}|RNA2{r(C)p.r(C)p.r(U)p.r(C)p.r(A)p.r(C)p.r(C)p.r(A)p.r(U)p.r(C)p.r(C)p.r(G)p.r(U)p.r(C)p.r(C)p.r(A)p.r(G)p.r(U)p.r(A)p.d(C)p.d(T)}$$$RNA1{StrandType:ss}|RNA2{StrandType:as}$” was tested, and the normalised inhibition (eCFP-eYFP dual reporter) was 32.6%.
